Measurements from ChEMBL document CHEMBL1201862, “PubChem BioAssay data set” (2004).
The source made the active and inactive calls.

Legend:
[1] = target: Luciferin 4-monooxygenase (Photinus pyralis, UniProt P08659); experiment: firefly luciferase enzyme inhibitors, dose response, biochemical, luminescence (AID 1891)
[2] = Luminescence Cell-Based Dose Confirmation HTS to Identify Inhibitors of Platelet Dense Granule Release. [Related pubchem assays: 1663 (Primary HTS), 1678 (Summary of Project)]; format: functional
Jurkat = experiment: antigen receptor-induced NF-kB inhibitors, dose response, Jurkat, luciferase reporter, luminescence, B- and T-cell (AID 489004); format: functional, cell-based; conditions: Homo sapiens;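 further: NF-kB luciferase reporter Jurkat cells stimulated with PMA plus ionomycin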
[3] = cytotoxicity in HEK-293T NF-kB-Luc cells, dose response, cytotoxicity control for B/T-cell NF-kB inhibitor project, cell-based, uHTS hits (AID 489019); format: functional;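 further: IC50 reflects cytotoxicity as loss of cell viability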
[4] = target: Heat shock protein HSP 90-alpha (Homo sapiens, UniProt P07900); format: functional, organism-based
INS1 = experiment: beta cell apoptosis inhibitors, cytokine rescue, dose response, luminescence, retest (AID 449756); format: functional, cell-based; conditions: Rattus norvegicus;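 further: cell death triggered by IL-1 beta plus TNF-alpha plus IFN-gamma mixture; protective hits raise ATP signal compared with cytokine alone wells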
[5] = Shn3 3'UTR reporter inhibitors, dose response, cell-based, Clone20 osteoblasts, firefly luciferase, cherry-picked (AID 624132); format: functional;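 further: firefly luciferase luminescence from reporter carrying the Shn3 3'UTR in osteoblasts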
[6] = HepG2 cell cytotoxicity, dose response, cytotoxicity control for Shn3 inhibitor project, CellTiter-Glo, cherry-picked (AID 624134); format: functional, cell-based
[7] = control 3'UTR Renilla luciferase suppression, dose response, counter-screen for Shn3 inhibitor project, cell-based, Clone20-Shn3RL, cherry-picked (AID 624133); format: functional
[8] = A549 cell cytotoxicity, dose response, cytotoxicity control, plate reader, cherry-pick, antagonist series (AID 743412); format: functional, cell-based
[9] = HepG2 cell cytotoxicity, dose response, cytotoxicity control, plate reader, cherry-pick, antagonist series (AID 743416); format: functional, cell-based
[10] = LGR2 antagonists, dose response, cell-based, HEK293, CRE-luciferase reporter, cherry pick, set 2 (AID 743343); format: functional;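 further: transfected cells were stimulated with diluted bursicon conditioned medium after compound addition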
[11] = MC4R antagonists, dose response, counter-screen for LGR2 antagonist project, cell-based, plate reader, cherry pick (AID 743444); format: functional;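 further: transfected HEK 293 cells stimulated with alpha-MSH peptide; potency of inhibitors of the alpha-MSH evoked signal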
[12] = HEK293 cell cytotoxicity, dose response, cytotoxicity control, plate reader, cherry-picked samples (AID 743446); format: functional, cell-based
Trypsin = Trypsin (Sus scrofa, UniProt P00761); experiment: porcine trypsin inhibitors, dose response, selectivity assay for Rce1 protease inhibitor project, biochemical, quenched peptide fluorescence, cherry-pick (AID 488789)
CAAX prenyl protease 2 [13] = target: T1, CAAX prenyl protease 2 (Saccharomyces cerevisiae S288c, UniProt Q03530); format: biochemical
T1 sequence (Q03530 whole entry): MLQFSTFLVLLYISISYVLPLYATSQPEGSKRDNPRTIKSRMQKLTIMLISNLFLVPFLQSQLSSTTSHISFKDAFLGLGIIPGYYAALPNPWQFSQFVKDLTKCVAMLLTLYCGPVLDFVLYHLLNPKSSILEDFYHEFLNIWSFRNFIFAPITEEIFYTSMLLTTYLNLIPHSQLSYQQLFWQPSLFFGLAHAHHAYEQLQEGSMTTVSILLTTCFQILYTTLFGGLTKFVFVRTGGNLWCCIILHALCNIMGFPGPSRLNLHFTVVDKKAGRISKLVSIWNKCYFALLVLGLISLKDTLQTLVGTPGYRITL

CAAX prenyl protease 1 = CAAX prenyl protease 1 (Saccharomyces cerevisiae S288c, UniProt P47154); experiment: Ste24 protease inhibitors, dose response, biochemical, S. cerevisiae, plate reader, cherry-pick (AID 488815)
CAAX prenyl protease 2 [14] = target: T2, CAAX prenyl protease 2 (Homo sapiens, UniProt Q9Y256); experiment: human Rce1 protease inhibitors, dose response, biochemical, yeast membranes, quenched-peptide fluorescence, cherry-pick (AID 588849)
T2 sequence (Q9Y256 whole entry): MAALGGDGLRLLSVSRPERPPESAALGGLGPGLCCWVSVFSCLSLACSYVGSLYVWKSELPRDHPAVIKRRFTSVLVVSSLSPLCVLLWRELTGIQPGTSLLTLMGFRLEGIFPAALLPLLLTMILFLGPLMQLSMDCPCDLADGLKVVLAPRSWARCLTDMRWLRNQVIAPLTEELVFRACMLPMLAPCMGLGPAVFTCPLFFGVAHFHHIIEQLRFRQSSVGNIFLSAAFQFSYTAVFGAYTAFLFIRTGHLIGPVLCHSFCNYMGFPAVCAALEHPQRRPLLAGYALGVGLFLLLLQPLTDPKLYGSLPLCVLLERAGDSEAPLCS

[15] = inhibitors of intracellular T. cruzi replication, confirmation, NIH3T3 host cells, beta-gal luminescence (AID 2044); format: functional, cell-based;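 further: intracellular parasites grown in NIH/3T3 mouse fibroblasts as host cells; luminescent beta-galactosidase reporter signal from transgenic T. cruzi replicating inside host cells; inhibitors lower the luminescence signal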
[16] = cytotoxicity toward NIH3T3 fibroblasts, dose response, counter-screen, cell-based, ATP luminescence, mouse fibroblasts (AID 2010); format: functional;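 further: cells exposed to compound for about 90 hours before reading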
[17] = target: T3, Short transient receptor potential channel 4 (Mus musculus, UniProt Q9QUQ5); experiment: mouse TRPC4 channel inhibitors, dose response, cell-based, HEK293 TRPC4/mu-opioid, Fluo-4 calcium (AID 434942); format: functional;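 further: potency of inhibitors blocking the TRPC4 calcium response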
T3 sequence (Q9QUQ5 whole entry): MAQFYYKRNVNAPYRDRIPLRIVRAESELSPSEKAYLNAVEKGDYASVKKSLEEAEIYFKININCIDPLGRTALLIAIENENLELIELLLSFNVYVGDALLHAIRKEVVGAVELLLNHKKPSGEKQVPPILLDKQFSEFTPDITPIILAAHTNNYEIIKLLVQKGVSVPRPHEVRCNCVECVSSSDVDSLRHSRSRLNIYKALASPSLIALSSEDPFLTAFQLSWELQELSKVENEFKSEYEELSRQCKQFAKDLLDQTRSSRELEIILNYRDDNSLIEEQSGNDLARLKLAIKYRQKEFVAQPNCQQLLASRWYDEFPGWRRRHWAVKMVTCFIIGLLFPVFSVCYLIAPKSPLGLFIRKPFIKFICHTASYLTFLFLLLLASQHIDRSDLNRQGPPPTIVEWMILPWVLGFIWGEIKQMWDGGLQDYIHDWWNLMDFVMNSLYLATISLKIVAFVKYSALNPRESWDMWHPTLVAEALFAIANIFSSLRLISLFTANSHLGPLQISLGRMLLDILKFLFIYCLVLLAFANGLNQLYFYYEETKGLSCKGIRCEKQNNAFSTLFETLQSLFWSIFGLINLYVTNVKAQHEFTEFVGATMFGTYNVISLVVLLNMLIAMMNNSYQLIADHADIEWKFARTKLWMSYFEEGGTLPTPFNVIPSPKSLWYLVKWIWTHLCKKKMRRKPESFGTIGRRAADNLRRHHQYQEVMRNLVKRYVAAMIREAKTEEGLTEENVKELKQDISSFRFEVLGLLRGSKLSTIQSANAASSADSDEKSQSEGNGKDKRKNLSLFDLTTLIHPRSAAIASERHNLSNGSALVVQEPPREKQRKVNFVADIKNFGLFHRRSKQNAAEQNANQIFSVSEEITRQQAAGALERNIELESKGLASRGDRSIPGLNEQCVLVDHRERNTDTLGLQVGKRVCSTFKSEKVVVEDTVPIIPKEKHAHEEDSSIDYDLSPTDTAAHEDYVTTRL

[18] = target: Glucose-6-phosphate 1-dehydrogenase (Homo sapiens, UniProt P11413); experiment: human G6PD enzyme inhibitors, dose response, selectivity assay for P. falciparum G6PD inhibitor project, biochemical, fluorescence (AID 504792); format: functional
[19] = target: T4, Replicative DNA helicase DnaB (Mycobacterium tuberculosis, UniProt P9WMR3); experiment: DnaB intein splicing inhibitors, dose response, biochemical, cell-free fluorescence (AID 449749); format: functional
T4 sequence (P9WMR3 whole entry): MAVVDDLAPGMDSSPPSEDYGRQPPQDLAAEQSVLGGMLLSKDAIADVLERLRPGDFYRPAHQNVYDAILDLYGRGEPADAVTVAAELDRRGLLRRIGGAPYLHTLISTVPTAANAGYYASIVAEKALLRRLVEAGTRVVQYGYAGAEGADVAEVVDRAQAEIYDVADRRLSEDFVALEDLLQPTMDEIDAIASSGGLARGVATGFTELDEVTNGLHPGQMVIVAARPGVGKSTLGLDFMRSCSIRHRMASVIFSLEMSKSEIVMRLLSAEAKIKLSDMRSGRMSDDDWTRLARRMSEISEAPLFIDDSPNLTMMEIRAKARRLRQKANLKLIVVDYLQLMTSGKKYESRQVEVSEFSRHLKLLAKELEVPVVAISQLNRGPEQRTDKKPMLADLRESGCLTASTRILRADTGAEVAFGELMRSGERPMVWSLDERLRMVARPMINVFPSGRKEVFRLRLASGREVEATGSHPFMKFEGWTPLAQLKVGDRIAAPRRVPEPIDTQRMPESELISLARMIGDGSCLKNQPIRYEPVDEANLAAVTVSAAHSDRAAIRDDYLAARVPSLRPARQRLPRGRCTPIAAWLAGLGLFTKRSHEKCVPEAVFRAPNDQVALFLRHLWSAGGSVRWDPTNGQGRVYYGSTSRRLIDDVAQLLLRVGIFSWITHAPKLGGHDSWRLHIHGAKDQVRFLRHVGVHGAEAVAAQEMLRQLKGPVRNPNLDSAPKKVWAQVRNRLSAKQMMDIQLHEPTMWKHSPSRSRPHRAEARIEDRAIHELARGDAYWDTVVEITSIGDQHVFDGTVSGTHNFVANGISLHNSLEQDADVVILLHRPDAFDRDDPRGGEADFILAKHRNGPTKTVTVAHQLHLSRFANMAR

Protein RecA = target: T5, Protein RecA (Mycobacterium tuberculosis, UniProt P9WHJ3); experiment: Fluorescence Cell-Free Homogeneous Dose Retest to Identify Inhibitors of RecA-Intein Splicing Activity. [Related pubchem assays (depositor defined):AID2097, AID2223, AID489010, AID492950]; format: functional
T5 sequence (P9WHJ3 whole entry): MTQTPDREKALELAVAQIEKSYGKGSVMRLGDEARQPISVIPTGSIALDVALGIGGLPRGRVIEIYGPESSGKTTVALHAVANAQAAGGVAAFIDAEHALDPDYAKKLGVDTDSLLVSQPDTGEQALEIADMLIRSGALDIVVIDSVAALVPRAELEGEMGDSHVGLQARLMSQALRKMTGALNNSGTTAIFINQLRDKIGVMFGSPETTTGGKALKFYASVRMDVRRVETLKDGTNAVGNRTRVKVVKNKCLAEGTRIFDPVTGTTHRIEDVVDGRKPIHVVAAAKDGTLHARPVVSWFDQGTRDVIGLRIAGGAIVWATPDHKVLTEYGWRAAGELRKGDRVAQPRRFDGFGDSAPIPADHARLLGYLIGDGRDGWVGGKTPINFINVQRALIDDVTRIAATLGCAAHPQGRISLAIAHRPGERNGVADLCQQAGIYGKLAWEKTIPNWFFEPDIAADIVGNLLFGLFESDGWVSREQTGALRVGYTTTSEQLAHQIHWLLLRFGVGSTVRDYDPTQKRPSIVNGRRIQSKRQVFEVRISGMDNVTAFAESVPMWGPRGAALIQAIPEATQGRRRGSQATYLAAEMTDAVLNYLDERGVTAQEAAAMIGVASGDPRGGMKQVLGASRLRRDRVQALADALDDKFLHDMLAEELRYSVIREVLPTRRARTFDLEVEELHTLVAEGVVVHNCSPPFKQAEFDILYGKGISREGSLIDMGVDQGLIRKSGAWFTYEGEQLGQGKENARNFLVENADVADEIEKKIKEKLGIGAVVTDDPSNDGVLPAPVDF

Trypsin, sequence (P00761 whole entry): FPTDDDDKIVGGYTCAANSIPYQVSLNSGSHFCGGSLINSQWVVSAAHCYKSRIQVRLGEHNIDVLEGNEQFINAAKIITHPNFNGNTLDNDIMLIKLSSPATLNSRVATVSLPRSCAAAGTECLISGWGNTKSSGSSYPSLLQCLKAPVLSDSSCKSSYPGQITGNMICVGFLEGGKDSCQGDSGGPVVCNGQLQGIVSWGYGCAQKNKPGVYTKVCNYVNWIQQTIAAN
CAAX prenyl protease 1, sequence (P47154 whole entry): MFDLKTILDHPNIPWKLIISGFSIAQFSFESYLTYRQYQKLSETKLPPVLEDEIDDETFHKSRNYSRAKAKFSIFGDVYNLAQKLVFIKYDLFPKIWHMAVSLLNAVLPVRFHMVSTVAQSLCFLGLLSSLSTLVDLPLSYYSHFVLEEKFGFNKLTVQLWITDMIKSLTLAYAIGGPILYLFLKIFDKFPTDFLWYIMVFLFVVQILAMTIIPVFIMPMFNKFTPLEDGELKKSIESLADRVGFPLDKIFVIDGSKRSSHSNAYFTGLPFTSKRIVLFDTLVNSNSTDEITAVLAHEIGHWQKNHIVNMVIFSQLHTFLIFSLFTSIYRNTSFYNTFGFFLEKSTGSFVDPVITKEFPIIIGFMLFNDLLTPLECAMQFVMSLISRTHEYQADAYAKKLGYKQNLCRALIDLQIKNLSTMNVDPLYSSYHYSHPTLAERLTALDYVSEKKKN
Glucose-6-phosphate 1-dehydrogenase, sequence (P11413 whole entry): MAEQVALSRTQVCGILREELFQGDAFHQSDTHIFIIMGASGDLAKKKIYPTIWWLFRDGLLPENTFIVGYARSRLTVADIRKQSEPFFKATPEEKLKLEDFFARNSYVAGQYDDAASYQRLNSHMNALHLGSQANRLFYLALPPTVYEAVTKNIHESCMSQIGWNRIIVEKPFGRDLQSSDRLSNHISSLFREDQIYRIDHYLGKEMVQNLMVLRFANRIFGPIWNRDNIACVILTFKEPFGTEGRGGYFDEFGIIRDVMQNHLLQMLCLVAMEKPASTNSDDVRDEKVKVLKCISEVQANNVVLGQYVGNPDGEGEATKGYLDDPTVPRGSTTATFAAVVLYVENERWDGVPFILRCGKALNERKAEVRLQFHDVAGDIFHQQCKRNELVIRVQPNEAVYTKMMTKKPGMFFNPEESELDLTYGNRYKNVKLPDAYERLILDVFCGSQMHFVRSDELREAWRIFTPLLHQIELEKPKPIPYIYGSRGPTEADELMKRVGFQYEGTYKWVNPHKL
Luciferin 4-monooxygenase, sequence (P08659 whole entry): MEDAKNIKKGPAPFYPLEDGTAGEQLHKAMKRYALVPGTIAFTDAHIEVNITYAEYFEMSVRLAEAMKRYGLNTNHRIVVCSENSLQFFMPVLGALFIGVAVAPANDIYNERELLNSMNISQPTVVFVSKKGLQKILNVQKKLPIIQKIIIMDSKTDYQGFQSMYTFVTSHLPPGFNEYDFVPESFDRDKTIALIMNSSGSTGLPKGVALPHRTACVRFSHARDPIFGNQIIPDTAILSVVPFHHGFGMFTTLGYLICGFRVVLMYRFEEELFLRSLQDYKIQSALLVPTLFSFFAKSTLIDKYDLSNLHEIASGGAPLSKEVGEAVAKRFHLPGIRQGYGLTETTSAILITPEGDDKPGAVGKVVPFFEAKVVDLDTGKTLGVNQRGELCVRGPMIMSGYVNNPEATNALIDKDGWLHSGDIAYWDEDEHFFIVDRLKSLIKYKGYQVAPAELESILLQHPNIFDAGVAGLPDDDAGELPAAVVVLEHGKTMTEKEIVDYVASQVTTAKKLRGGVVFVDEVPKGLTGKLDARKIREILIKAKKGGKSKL

COc1ccc(-c2nc(-c3ccccn3)no2)cc1
EC50 [1]: 548 nM (active) | EC50 [2]: 2.15 µM (active) | IC50 (Jurkat): 0.88 µM (active) | IC50 [3]: > 80 µM (inactive) | AC50 [4]: 20.4 µM (active) | AC50 (INS1): 3.81 µM (active) | AC50 [5]: 1.92 µM (active) | AC50 [6]: 7.01 µM (active) | AC50 [7]: 26.9 µM (active) | AC50 [8]: 3.8 µM (active) | AC50 [9]: 3.7 µM (active) | AC50 [10]: 415 nM (active) | AC50 [11]: 504 nM (active) | AC50 [12]: 3.26 µM (active)

C[n+]1ccc(-c2ccccc2)c2ccccc21
AC50 (Trypsin): 23.1 µM (active) | AC50 (CAAX prenyl protease 2 [13]): 54.7 µM (active) | AC50 (CAAX prenyl protease 1): 2.18 µM (active) | AC50 (CAAX prenyl protease 2 [14]): 5.8 µM (active)

CCCCC[n+]1cccc2c3ccccc3ccc21
EC50 [15]: 466 nM (active) | EC50 [16]: > 30 µM (not active) | AC50 (Trypsin): 8.59 µM (active) | EC50 [17]: 3.35 µM (active) | IC50 (Jurkat): > 80 µM (inactive) | AC50 (CAAX prenyl protease 2 [13]): > 100 µM (inactive) | IC50 [3]: > 80 µM (inactive) | AC50 (CAAX prenyl protease 1): 4.72 µM (active) | AC50 (INS1): 4.56 µM (active) | AC50 (CAAX prenyl protease 2 [14]): 7.74 µM (active)

Cc1ccc(S(=O)(=O)N(C(=O)c2ccncc2)c2ccc(OC(=O)c3ccncc3)c3ccccc23)cc1
IC50 [18]: > 80 µM (inactive) | AC50 [19]: 1.51 µM (active) | EC50 (Protein RecA): 315 nM (active)
